These results are taken from patent publication US12616713B2, “Methods for enhancing vascular density” (priority 2016, dated 2026).

For experiment [1], the system named is human aortic endothelial cells (HAECs). Description: Tube formation assay, HAECs. Type of experiment: cell-based. As to the method: Formation of tube networks was assessed as described before (Borradaile and Pickering, 2009, Aging Cell 8, 100-112). ECs were seeded at 10,000 cells per well in a 24-well plate (Corning) coated with 150 μL Cultrex reduced growth factor basement membrane extract (Trevigen). The cells were supplemented with C2C12 CM or EBM-2 medium containing VEGF (30 ng/mL) or FGF (30 ng/mL). […] Following an 18 h-incubation, resulting tube networks were analyzed by light microscopy (Nikon Eclipse TiE). For tube formation assays with H2O2 treatment, cells were incubated with 150 μM H2O2 for 1 h before seeding and imaged after 10 h-incubation. The number of branch points and total length of tubule networks were quantified by ImageJ software.

Another experiment has as its system HUVECs. Put plainly: VEGF-mediated transwell migration assay, HUVECs. Type of experiment: cell-based, human. Conditions: NMN 500 μM versus PBS.
For the next experiment, the system named is Notch signaling. Put plainly: Notch target genes and NICD in VEGF- or Dll4-stimulated HAECs. Type of experiment: cell-based, human. As to the method: Dll4 and VEGF stimulation of ECs. The ECs to be stimulated were serum-starved overnight and transferred to media containing VEGF (50 ng/mL) or to Dll4-coated plates, and then incubated for indicated time. Dll4 coating was performed as described before (Guarani et al., 2011, Nature 473, 234-238). Lyophilized recombinant Dll4 (R&D Systems) were reconstituted in PBS containing 0.1% bovine serum albumin. The culture dishes were coated with Dll4 (0.5 μg/mL) in 0.1 gelatin solution for 1 hr at 37° C.
Total mRNA was isolated from cells and tissues using TRIzol (Life Technologies). cDNAs were synthesized from 1 μg of total RNA using M-MLV reverse transcriptase (Biorad). qPCR was performed with LightCycler […] SYBR Green I Mastermix (Roche) using the LightCycler 480 System (Roche) according to the manufacturer's instructions. Relative mRNA expression levels were calculated using the ΔΔCt method.
SDS-PAGE and Western blot analysis were performed according to standard procedures and detected with the ECL detection kit (Bio-rad, Australia). […] Quantification of band intensities by densitometry was carried out using ImageJ software.

The test system of the next experiment is NAD^+. Put plainly: NAD+ measurements in tissues of NMN-treated mice. Type of experiment: in vivo, mouse. Conditions: 18-month old mice, NMN 400 mg/kg/day in drinking water, two months; liver and gastrocnemius. The source says: SIRT1-iKO, SIRT1-Tg and SIRT1^STOP mice were described previously (Firestein et al., 2008, PLoS One 3, e2020; Price et al., 2012, Cell Metab 15, 675-690). Tie2Cre and Sirt1^flox/flox mice were purchased from Jackson Laboratory (Bar Harbor, ME). MCK-PGC-1α and MyogCre mice were gifts from Dr. Bruce Spiegelman (Dana Farber Cancer Center, MA) and Dr. Eric N. Olson (UT Southwestern, Dallas, TX), respectively. mT-STOP^flox/flox, Gfp mouse was generated in house by E.O.W., which consists of an allele driven by ubiquitous actin B promoter, which has loxP sites flanking membrane-targeted tandem dimer Tomato (mT) and transcriptional STOP cassette, followed by a GFP coding sequence. […] SIRT1-iKO mice were fed tamoxifen (360 mg/kg) diet for five weeks to elicit whole-body SIRT1 exon 4 excision as described previously (Price et al., 2012). […] Levels of NAD^+ and NADH levels were measured in EC and muscle homogenates using commercially available kit (NAD-NADH Glo, Promega) according to manufacturer's instructions. Alternatively, NAD^+ levels in muscle and liver were measured by assay in-house developed method (Uddin et al., 2016, Front Pharmacol 7, 258). […] The other aliquot was acidified with HCl, and then neutralized with NaOH on ice to quantify NAD^+. […] Total NADH and NAD^+ were quantified using a Bio-Rad Imark microplate reader.

For another experiment, the system named is C57BL/6J mice. Put plainly: Muscle capillaries in mice with lentiviral EC-specific SIRT1 knockdown. Conditions: 20-month old mice, SIRT1 miRNA #5 lentivirus, NMN 400, NaHS 20, GYY4137 20 mg/kg/day, four weeks. It counts as in vivo, mouse. Here is the method:
Lentiviral particles were concentrated by ultracentrifugation (cite) and viral titer was determined by (cite kit) and injected at 1×10^10 TU/mouse carrying SIRT1 or NT miRNAs to 20-mo old WT C57BL/6J mice (NIA) via retro-orbital injection. Mice received two consecutive injections behind alternate eyes two days apart. 10 days post final injection, mice were assigned to different treatment groups.
Freshly isolated whole quadriceps and gastrocnemius muscle samples were mounted in OCT compound (Tissue-Tek), placed in an isopentane bath and slowly cooled in liquid nitrogen. Transverse sections at 20 μm-thickness were sectioned on a cryostat (Leica). The sections were fixed in pre-cooled acetone (−20° C.) for 10 min and washed with PBS. Slides were then blocked in normal goat serum and 5% Blocking Reagent (PerkinElmer) in PBST (PBS with 0.1% Triton-X) for 1 h at room temperature, and then incubated with anti-CD31 (ab56299, Abcam) and anti-Laminin (L9393, Sigma), GFP (ab6556, Abcam) or SIRT1 (HPA006295, Sigma) antibodies diluted in blocking buffer overnight at 4° C. […] Images were acquired using a confocal fluorescence microscope (Nikon A1). Quantification of capillaries and capillary density were performed using ImageJ software. […]

[2] abbreviates: NMN and VEGF (30 ng/mL) cotreatment of HAECs, compared to VEGF alone.

Molecules are shown by their SMILES.

For the compound `NC(=O)c1ccc[n+]([C@@H]2O[C@H](COP(=O)([O-])O)[C@@H](O)[C@H]2O)c1` [NMN, nicotinamide mononucleotide], in experiment [1] (NMN 10 μM, 100 μM or 500 μM versus PBS), the “number of branch points and total length of tubes” value is listed as “steadily increased”. In experiment [1] (setting [2]), the “increase in number of branch points” value came to 32% and the “increase in tubule length” value was determined as 15%. Besides, the “increase in number of branch points” value in experiment [1] (NMN itself, without VEGF) came out at 25%. For the same compound, the “ability of NMN to stimulate tube formation, dependence on SIRT1” value in experiment [1] (NT or SIRT1 siRNA, VEGF 30 ng/mL, NMN 0.5 mM) is on record as “SIRT1-dependent”. Further, the “effects of NMN on VEGF-mediated tube formation after knockdown of SIRT1” value in experiment [1] (Scr or SIRT1 siRNA, NMN 500 μM) is “completely blocked by knockdown of SIRT1”. In addition, the “VEGF-mediated tube formation after knockdown of SIRT3 and SIRT6” value in experiment [1] (T3 or T6 siRNA, VEGF 30 ng/mL, +/- NMN) is “partially rescued”. The disintegration of tubes result in experiment [1] (time-lapse videos, extended 18 h period) is “prevented the disintegration of tubes”. For the same compound, the “motility in response to VEGF (migrated cells)” value in the experiment on HUVECs is recorded as “promoted”. Further, the NICD protein levels entry with Notch signaling (VEGF- or Dll4-stimulated HAECs, NMN 0.5 mM) is “promoted NICD reduction”. Also, the “Notch target gene expression” value in the experiment on Notch signaling (after stimulation with VEGF (50 ng/mL) or Dll4, NMN 0.5 mM) was “significantly decreased”. Further, the “NAD^+ levels in tissues” value in the experiment on NAD^+ is listed as “raised NAD^+ levels”. The “ability to increase vascularization in SIRT1 knockdown mice” value in the experiment on C57BL/6J mice is reported as “blocked in the SIRT1 knockdown mice”.
